Results taken from patent publication US9663478B2, “Benzotriazine oxides as drugs targeting Mycobacterium tuberculosis” (priority 2011, dated 2017).
Converted amounts (≈) assume the structure as drawn. Read-outs that look alike come from different tables or passages of the source.

How the values were obtained:
Test in all cases: microbe, parasite or virus in culture
Assay type in all cases: cell-based, Mycobacterium tuberculosis
Conditions in all cases: for MIC: Mycobacterium tuberculosis
[1] = test system: Mtb strain resistant to P-aminosalicyclic acid ATCC 35821
[2] = test system: Mtb strain resistant to Kanamycin ATCC 35827
[3] = test system: Mtb strain resistant to Isoniazid ATCC 35822
[4] = test system: Mtb strain resistant to Streptomycin ATCC 35820
[5] = test system: Mtb strain resistant to Ethionamide ATCC 35830
[6] = test system: Mtb strain resistant to Ethambutol ATCC 35837
[7] = ATCC35821, read-out: Activity against Mtb strain resistant to P-aminosalicyclic acid ATCC 35821
[8] = ATCC35827, read-out: Activity against Mtb strain resistant to Kanamycin ATCC 35827
[9] = ATCC35822, read-out: Activity against Mtb strain resistant to Isoniazid ATCC 35822
[10] = ATCC35820, read-out: Activity against Mtb strain resistant to Streptomycin ATCC 35820
[11] = ATCC35830, read-out: Activity against Mtb strain resistant to Ethionamide ATCC 35830
[12] = ATCC35821, read-out: MIC, Mtb strain resistant to P-aminosalicyclic acid ATCC 35821
[13] = ATCC35820, 168 h, read-out: MIC, Mtb strain resistant to Streptomycin ATCC 35820
[14] = ATCC35837, read-out: MIC, Mtb strain resistant to Ethambutol ATCC 35837
[15] = ATCC35830, read-out: MIC, Mtb strain resistant to Ethionamide ATCC 35830
[16] = ATCC35837, read-out: Activity against Mtb strain resistant to Ethambutol ATCC 35837
[17] = ATCC35827, 168 h, read-out: MIC, Mtb strain resistant to Kanamycin ATCC 35827
[18] = ATCC35822, 168 h, read-out: MIC, Mtb strain resistant to Isoniazid ATCC 35822

## CC(C)(C)Nc1n[n+]([O-])c2ccccc2[n+]1[O-] [SRI-003356]
[1]; [7]
  MIC: 1.25 mg/L (≈ 5.34 µM)
[2]; [8]
  MIC: 2.5 mg/L (≈ 10.7 µM)
[3]; [9]
  MIC: 2.5 mg/L (≈ 10.7 µM)
[4]; [10]
  MIC: 1.25 mg/L (≈ 5.34 µM)
[5]; [11]
  MIC: 1.25 mg/L (≈ 5.34 µM)

## CN(CCc1ccccc1)c1n[n+]([O-])c2cc3c(cc2[n+]1[O-])CCC3 [Compound 20u, 3-(methyl(phenethyl)amino)-7,8-dihydro-6H-indeno[5,6-e][1,2,4]triazine 1,4-dioxide]
[1]; [12]
  MIC: 0.15 mg/L (≈ 0.446 µM)
[4]; [13]
  MIC: < 0.07 mg/L
[6]; [14]
  MIC: 0.31 mg/L (≈ 0.922 µM)
[5]; [15]
  MIC: 0.15 mg/L (≈ 0.446 µM)

## CCN(CC)c1n[n+]([O-])c2ccccc2[n+]1[O-] [SRI-009728]
[1]; [7]
  MIC: 0.31 mg/L (≈ 1.32 µM)
[2]; [8]
  MIC: 0.31 mg/L (≈ 1.32 µM)
[3]; [9]
  MIC: 0.31 mg/L (≈ 1.32 µM)
[4]; [10]
  MIC: 0.31 mg/L (≈ 1.32 µM)
[6]; [16]
  MIC: 0.31 mg/L (≈ 1.32 µM)
[5]; [11]
  MIC: 0.16 mg/L (≈ 0.683 µM)

## CN(Cc1ccccc1)c1n[n+]([O-])c2cc3c(cc2[n+]1[O-])CCC3 [SRI-012564]
[2]; [8]
  MIC: 0.15 mg/L (≈ 0.465 µM)
[3]; [9]
  MIC: < 0.07 mg/L

## [O-][n+]1nc(N2CCCC2)[n+]([O-])c2ccccc21 [SRI-012495]
[2]; [8]
  MIC: 0.31 mg/L (≈ 1.33 µM)
[3]; [9]
  MIC: 0.31 mg/L (≈ 1.33 µM)

## [O-][n+]1nc(N2CCCC2)[n+]([O-])c2cc3c(cc21)CCC3 [Compound 20q, 3-(pyrrolidin-1-yl)-7,8-dihydro-6H-indeno[5,6-e][1,2,4]triazine 1,4-dioxide]
[2]; ATCC35827, 168 h, Table 5, read-out: MIC, Mtb strain resistant to Kanamycin ATCC 35827
  MIC: 0.63 mg/L (≈ 2.31 µM)
[3]; ATCC35822, 168 h, Table 5, read-out: MIC, Mtb strain resistant to Isoniazid ATCC 35822
  MIC: 0.31 mg/L (≈ 1.14 µM)
[4]; ATCC35820, 168 h, Table 5, read-out: MIC, Mtb strain resistant to Streptomycin ATCC 35820
  MIC: 0.16 mg/L (≈ 0.588 µM)

## [O-][n+]1nc(NC2CCC2)[n+]([O-])c2cc3c(cc21)CCC3 [Compound 15fd, Cyclobutyl-(5,8-dioxy-2,3-dihydro-1H-5,6,8-triaza-cyclopenta[b]naphthalen-7-yl)-amine]
[1]; Table 5
  MIC, Mtb strain resistant to P-aminosalicyclic acid ATCC 35821: 0.62 mg/L (≈ 2.28 µM)
[2]; Table 5
  MIC, Mtb strain resistant to Kanamycin ATCC 35827: 1.2 mg/L (≈ 4.41 µM)
[3]; Table 5
  MIC, Mtb strain resistant to Isoniazid ATCC 35822: 1.2 mg/L (≈ 4.41 µM)
[4]; Table 5
  MIC, Mtb strain resistant to Streptomycin ATCC 35820: 0.31 mg/L (≈ 1.14 µM)
[6]; Table 5
  MIC, Mtb strain resistant to Ethambutol ATCC 35837: 0.62 mg/L (≈ 2.28 µM)
[5]; Table 5
  MIC, Mtb strain resistant to Ethionamide ATCC 35830: 0.62 mg/L (≈ 2.28 µM)

## [O-][n+]1nc(N2CCCCC2)[n+]([O-])c2cc3c(cc21)CCC3 [SRI-012562]
[2]; [8]
  MIC: 0.31 mg/L (≈ 1.08 µM)
[3]; [9]
  MIC: 0.15 mg/L (≈ 0.524 µM)

## CS(=O)(=O)N1CCN(c2n[n+]([O-])c3cc4c(cc3[n+]2[O-])CCC4)CC1 [SRI-012568]
[1]; [7]
  MIC: 2.5 mg/L (≈ 6.84 µM)
[2]; [8]
  MIC: 2.5 mg/L (≈ 6.84 µM)
[3]; [9]
  MIC: 2.5 mg/L (≈ 6.84 µM)
[4]; [10]
  MIC: 2.5 mg/L (≈ 6.84 µM)
[6]; [16]
  MIC: 2.5 mg/L (≈ 6.84 µM)
[5]; [11]
  MIC: 0.62 mg/L (≈ 1.7 µM)

## CC1CCCCN1c1n[n+]([O-])c2cc3c(cc2[n+]1[O-])CCC3 (centres unmarked) [Compound 20w, 3-(2-methylpiperidin-1-yl)-7,8-dihydro-6H-indeno[5,6-e][1,2,4]triazine 1,4-dioxide]
[1]; [12]
  MIC: 0.62 mg/L (≈ 2.06 µM)
[4]; [13]
  MIC: 0.31 mg/L (≈ 1.03 µM)
[6]; [14]
  MIC: 0.62 mg/L (≈ 2.06 µM)
[5]; [15]
  MIC: 0.31 mg/L (≈ 1.03 µM)

## CCNc1n[n+]([O-])c2cc3c(cc2[n+]1[O-])CCC3 [Compound 15fa, 3-(ethylamino)-7,8-dihydro-6H-indeno[5,6-e][1,2,4]triazine 1,4-dioxide]
[1]; [12]
  MIC: 1.2 mg/L (≈ 4.87 µM)
[2]; [17]
  MIC: 1.2 mg/L (≈ 4.87 µM)
[3]; [18]
  MIC: 2.5 mg/L (≈ 10.2 µM)
[4]; [13]
  MIC: 0.63 mg/L (≈ 2.56 µM)
[6]; [14]
  MIC: 1.2 mg/L (≈ 4.87 µM)
[5]; [15]
  MIC: 1.2 mg/L (≈ 4.87 µM)

## CCNc1n[n+]([O-])c2cc(C)c(OC)cc2[n+]1[O-] [Compound 15ga, 3-(ethylamino)-6-methoxy-7-methylbenzo[e][1,2,4]triazine 1,4-dioxide]
[1]; [12]
  MIC: 1.2 mg/L (≈ 4.8 µM)
[2]; [17]
  MIC: 1.2 mg/L (≈ 4.8 µM)
[3]; [18]
  MIC: 1.2 mg/L (≈ 4.8 µM)
[4]; [13]
  MIC: 1.2 mg/L (≈ 4.8 µM)
[6]; [14]
  MIC: 1.2 mg/L (≈ 4.8 µM)
[5]; [15]
  MIC: 1.2 mg/L (≈ 4.8 µM)

## [O-][n+]1nc(NC2CC3CCC2C3)[n+]([O-])c2cc3c(cc21)CCCC3 (centres unmarked) [SRI-012498]
[1]; [7]
  MIC: 1.25 mg/L (≈ 3.83 µM)
[2]; [8]
  MIC: 1.25 mg/L (≈ 3.83 µM)
[3]; [9]
  MIC: 2.5 mg/L (≈ 7.66 µM)
[4]; [10]
  MIC: 1.25 mg/L (≈ 3.83 µM)
[6]; [16]
  MIC: 1.25 mg/L (≈ 3.83 µM)
[5]; [11]
  MIC: 1.25 mg/L (≈ 3.83 µM)

## CC(C)(C)Nc1n[n+]([O-])c2ccccc2[n+]1[O-] [Compound 8c, 3-(tert-butylamino)benzo[e][1,2,4]triazine 1,4-dioxide]
[1]; [12]
  MIC: 1.2 mg/L (≈ 5.12 µM)
[4]; [13]
  MIC: 1.2 mg/L (≈ 5.12 µM)
[6]; [14]
  MIC: 2.5 mg/L (≈ 10.7 µM)
[5]; [15]
  MIC: 1.2 mg/L (≈ 5.12 µM)
